What all share (assay type): biochemical
One test concerns the target T1, cathepsin B (Homo sapiens, UniProt P07858).
T1 construct: cathepsin B—isolated from human liver; purchased Calbiochem 219362; host or cells: human liver (tissue isolate)
Briefly: Cathepsin B enzyme inhibition in vitro (kinetic fluorescence assay). Conditions: Ki(cathepsin B)/Ki(calpain) ratio. The procedure: (§1) Testing for blockade of the corresponding enzymic activities was carried out by means of kinetic fluorescence assays (excitation 390 nm, emission 460 nm).
(§2) Apparent Ki values were calculated from the experimentally determined IC50 values by the Cheng-Prussoff relation assuming a reversible competitive enzyme inhibition. The Km values of the substrates used under the assay conditions indicated above were: 90 μM (Z-Phe-Arg-AMC, cathepsin B), 10 μM (Z-Gly-Pro-Arg-AMC, cathepsin K), 2 μM (Z-Phe-Arg-AMC, cathepsin L), and 30 μM (Z-Val-Val-Arg-AMC, cathepsin S).
(§3) The indicated Ki values are averages of the inhibition constants calculated on the basis of 2 to 4 independent dose-effect plots.
(§4) • 1. Calpain I: • 20 nM calpain-I—isolated from human erythrocytes (Calbiochem #208713), 100 μM Suc-Leu-Tyr-AMC (Bachem #1-1355) as substrate in buffer with 62 mM imidazole, 0.3 mM CaCl2, 0.10% CHAPS, 0.05% BSA, 1 mM DTT at pH 7.3 and room temperature. • 2. Cathepsin B: • 0.25 nM cathepsin B—isolated from human liver (Calbiochem #219362), 100 μM Z-Phe-Arg-AMC (Bachem #1-1160) as substrate 50 mM MES, 2 mM EDTA, 0.05% Brij 35, 2.5 mM L-cysteine, pH 6.0, room temperature. • 3. Cathepsin K: • 3 nM cathepsin K—activated from recombinant human procathepsin K from E. coli (Calbiochem #342001), 10 μM Z-Gly-Pro-Arg-AMC (Biomol #P-142) as substrate in 50 mM MES, 2 mM EDTA, 0.05% Brij 35, 2.5 mM L-cysteine, pH 6.0, room temperature. • 4. Cathepsin L: • 1 nM cathepsin L—isolated from human liver (Calbiochem #219402), 2 μM Z-Phe-Arg-AMC (Bachem #1-1160) as substrate in 50 mM MES, 2 mM EDTA, 0.05% Brij 35, 2.5 mM L-cysteine, pH 6.0, room temperature. • 5. Cathepsin S: • 0.5 nM recombinant human cathepsin S from E. coli (Calbiochem #219343), 20 μM Z-Val-Val-Arg-AMC (Bachem #1-1540) as substrate in 50 mM MES, 2 mM EDTA, 0.05% Brij 35, 2.5 mM L-cysteine, pH 6.0, room temperature.

In another test the target is T2, cathepsin K (Homo sapiens, UniProt P43235).
T2 construct: purchased Calbiochem 342001; host or cells: E. coli
T2 sequence (P43235 115-329): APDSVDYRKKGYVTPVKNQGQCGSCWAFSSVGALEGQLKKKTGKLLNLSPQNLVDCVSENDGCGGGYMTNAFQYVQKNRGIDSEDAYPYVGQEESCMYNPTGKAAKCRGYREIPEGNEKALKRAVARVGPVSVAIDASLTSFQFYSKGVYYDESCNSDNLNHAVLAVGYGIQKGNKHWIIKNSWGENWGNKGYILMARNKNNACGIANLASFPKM
Briefly: Cathepsin K enzyme inhibition in vitro (kinetic fluorescence assay). Conditions: Ki(cathepsin K)/Ki(calpain) ratio. The procedure:
as §1, §2, §3, §4

The target of a further test is T3, cathepsin L (Homo sapiens, UniProt P07711).
T3 construct: cathepsin L—isolated from human liver; purchased Calbiochem 219402; host or cells: human liver (tissue isolate)
T3 sequence (P07711 114-333): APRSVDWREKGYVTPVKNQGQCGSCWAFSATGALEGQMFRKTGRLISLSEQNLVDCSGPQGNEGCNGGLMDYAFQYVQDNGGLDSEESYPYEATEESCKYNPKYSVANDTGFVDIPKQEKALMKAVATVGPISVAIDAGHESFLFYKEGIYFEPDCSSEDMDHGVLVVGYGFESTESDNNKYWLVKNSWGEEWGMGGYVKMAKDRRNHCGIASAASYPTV
Briefly: Cathepsin L enzyme inhibition in vitro (kinetic fluorescence assay). Particulars: Ki(cathepsin L)/Ki(calpain) ratio. Put shortly: (§5)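 Kinetic fluorescence (ex 390/em 460 nm), room temperature: calpain-I (human erythrocyte, 20 nM) with 100 µM Suc-Leu-Tyr-AMC, imidazole/CaCl2 pH 7.3; cathepsin B (liver, 0.25 nM), 100 µM Z-Phe-Arg-AMC; L (liver, 1 nM), 2 µM Z-Phe-Arg-AMC; S (recombinant, 0.5 nM), 20 µM Z-Val-Val-Arg-AMC; cathepsins in MES/EDTA/cysteine pH 6.0. Apparent Ki via Cheng-Prusoff, 2–4 curves averaged.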

The target in the next test is T4, cathepsin S (Homo sapiens, UniProt P25774).
T4 construct: purchased Calbiochem 219343; host or cells: E. coli
T4 sequence (P25774 115-331): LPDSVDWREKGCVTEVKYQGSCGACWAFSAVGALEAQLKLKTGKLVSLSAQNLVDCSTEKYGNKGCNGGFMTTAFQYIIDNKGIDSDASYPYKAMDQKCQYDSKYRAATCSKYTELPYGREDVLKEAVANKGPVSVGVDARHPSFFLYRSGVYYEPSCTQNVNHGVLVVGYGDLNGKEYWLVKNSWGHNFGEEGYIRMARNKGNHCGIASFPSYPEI
Kind of test: Cathepsin S enzyme inhibition in vitro (kinetic fluorescence assay). Conditions: Ki(cathepsin S)/Ki(calpain) ratio. Put shortly:
as §5

Turning to `NC(=O)C(=O)C(Cc1ccccc1)NC(=O)c1cccnc1-n1ccc(-c2cccc(C(F)(F)F)c2)n1` (stereo not shown) [Example 83, N-(3-Amino-1-benzyl-2,3-dioxopropyl)-2-{3-[3-(trifluoromethyl)phenyl]-1H-pyrazol-1-yl}nicotinamide], the “Sel cat. B” value at cathepsin B is recorded as “+ (+ means 10≦Ki(cathepsin B)/Ki(calpain)<30)”. Also, on cathepsin K, the “Sel cat. K” value is “++ (++ means a Ki(cathepsin K)/Ki(calpain) ratio of ≧30)”. Besides, the “Sel cat. L” value at cathepsin L is given as “++ (++ means a Ki(cathepsin L)/Ki(calpain) ratio of ≧50)”. For the same molecule, the “Sel cat. S” value on cathepsin S is “++ (++ means a Ki(cathepsin S)/Ki(calpain) ratio of ≧100)”.

As to `NC(=O)C(=O)C(Cc1ccccc1)NC(=O)c1cccnc1-n1ccc(-c2c(F)cccc2F)n1` (stereo not shown) [Example 85, N-[3-Amino-2,3-dioxo-1-(phenylmethyl)propyl]-2-[3-(2,6-difluorophenyl)-1H-pyrazol-1-yl]pyridine-3-carboxamide], on cathepsin B, the “Sel cat. B” value is “+ (+ means 10≦Ki(cathepsin B)/Ki(calpain)<30)”. In addition, the “Sel cat. K” value at cathepsin K is reported as “++ (++ means a Ki(cathepsin K)/Ki(calpain) ratio of ≧30)”. At cathepsin L, the “Sel cat. L” value was “++ (++ means a Ki(cathepsin L)/Ki(calpain) ratio of ≧50)”. Moreover, the “Sel cat. S” value at cathepsin S is given as “++ (++ means a Ki(cathepsin S)/Ki(calpain) ratio of ≧100)”.

As to `COc1ccc(CC(NC(=O)c2cccnc2-n2ccc(-c3ccc4c(c3)OC(F)(F)O4)n2)C(=O)C(N)=O)cc1` (stereo not shown) [Example 137, N-(3-Amino-1-{[4-(methyloxy)phenyl]methyl}-2,3-dioxopropyl)-2-[3-(2,2-difluoro-1,3-benzodioxol-5-yl)-1H-pyrazol-1-yl]pyridine-3-carboxamide], the “Sel cat. B” value at cathepsin B is on record as “+ (+ means 10≦Ki(cathepsin B)/Ki(calpain)<30)”. Besides, the “Sel cat. K” value on cathepsin K is “+ (+ means 10≦Ki(cathepsin K)/Ki(calpain)<30)”. Besides, the “Sel cat. L” value at cathepsin L is “++ (++ means a Ki(cathepsin L)/Ki(calpain) ratio of ≧50)”. Also, on cathepsin S, the “Sel cat. S” value is “++ (++ means a Ki(cathepsin S)/Ki(calpain) ratio of ≧100)”.

Consider `NC(=O)C(=O)C(Cc1ccccc1)NC(=O)c1cccnc1-n1ccc(-c2cccs2)n1` (stereo not shown) [Example 55, N-(3-Amino-1-benzyl-2,3-dioxopropyl)-2-[3-(2-thienyl)-1H-pyrazol-1-yl]nicotinamide], for which the “Sel cat. B” value at cathepsin B was “+ (+ means 10≦Ki(cathepsin B)/Ki(calpain)<30)”. The “Sel cat. K” value on cathepsin K is “+ (+ means 10≦Ki(cathepsin K)/Ki(calpain)<30)”. In addition, the “Sel cat. L” value on cathepsin L is “++ (++ means a Ki(cathepsin L)/Ki(calpain) ratio of ≧50)”. Moreover, the “Sel cat. S” value at cathepsin S was “++ (++ means a Ki(cathepsin S)/Ki(calpain) ratio of ≧100)”.

For `NC(=O)C(=O)C(Cc1ccccc1)NC(=O)c1cccnc1-n1cc2c(n1)-c1ccccc1S(=O)(=O)C2` (stereo not shown) [Example 174, N-[3-Amino-2,3-dioxo-1-(phenylmethyl)propyl]-2-(5,5-dioxidothiochromeno[4,3-c]pyrazol-2(4H)-yl)pyridine-3-carboxamide], the “Sel cat. B” value at cathepsin B is recorded as “+ (+ means 10≦Ki(cathepsin B)/Ki(calpain)<30)”. Also, the “Sel cat. K” value on cathepsin K is reported as “+ (+ means 10≦Ki(cathepsin K)/Ki(calpain)<30)”. In addition, the “Sel cat. L” value at cathepsin L is reported as “++ (++ means a Ki(cathepsin L)/Ki(calpain) ratio of ≧50)”. For the same molecule, the “Sel cat. S” value on cathepsin S is reported as “++ (++ means a Ki(cathepsin S)/Ki(calpain) ratio of ≧100)”.

For “N-[3-Amino-2,3-dioxo-1-(phenylmethyl)propyl]-2-[3-(3,5-dichlorophenyl)-1H-pyrazol-1-yl]pyridine-3-carboxamide [Example 89]”, at cathepsin B, the “Sel cat. B” value is given as “+ (+ means 10≦Ki(cathepsin B)/Ki(calpain)<30)”. For the same molecule, the “Sel cat. K” value on cathepsin K is reported as “+ (+ means 10≦Ki(cathepsin K)/Ki(calpain)<30)”. In addition, the “Sel cat. L” value at cathepsin L is reported as “++ (++ means a Ki(cathepsin L)/Ki(calpain) ratio of ≧50)”. The “Sel cat. S” value on cathepsin S was “++ (++ means a Ki(cathepsin S)/Ki(calpain) ratio of ≧100)”.

For `COc1ccc(-c2ccn(-c3ncccc3C(=O)NC(Cc3ccccc3)C(=O)C(N)=O)n2)c(OC)c1` (stereo not shown) [Example 117, N-[3-Amino-2,3-dioxo-1-(phenylmethyl)propyl]-2-{3-[2,4-bis(methyloxy)phenyl]-1H-pyrazol-1-yl}pyridine-3-carboxamide], at cathepsin B, the “Sel cat. B” value is “++ (++ means a Ki(cathepsin B)/Ki(calpain) ratio of ≧30)”. Moreover, at cathepsin K, the “Sel cat. K” value is “++ (++ means a Ki(cathepsin K)/Ki(calpain) ratio of ≧30)”. Further, the “Sel cat. L” value at cathepsin L is recorded as “++ (++ means a Ki(cathepsin L)/Ki(calpain) ratio of ≧50)”. Further, on cathepsin S, the “Sel cat. S” value was “++ (++ means a Ki(cathepsin S)/Ki(calpain) ratio of ≧100)”.

In the case of `NC(=O)C(=O)C(Cc1ccc(OC(F)(F)F)cc1)NC(=O)c1cccnc1-n1ccc(-c2ccccc2)n1` (stereo not shown) [Example 133], the “Sel cat. B” value at cathepsin B is given as “++ (++ means a Ki(cathepsin B)/Ki(calpain) ratio of ≧30)”. For the same molecule, the “Sel cat. K” value at cathepsin K is recorded as “++ (++ means a Ki(cathepsin K)/Ki(calpain) ratio of ≧30)”. Also, the “Sel cat. L” value at cathepsin L is recorded as “++ (++ means a Ki(cathepsin L)/Ki(calpain) ratio of ≧50)”. Also, the “Sel cat. S” value on cathepsin S is recorded as “++ (++ means a Ki(cathepsin S)/Ki(calpain) ratio of ≧100)”.

Turning to `NC(=O)C(=O)C(Cc1ccccc1)NC(=O)c1cccnc1-n1ccc(-c2ccc(Cl)s2)n1` (stereo not shown) [Example 103, N-[3-Amino-2,3-dioxo-1-(phenylmethyl)propyl]-2-[3-(5-chloro-2-thienyl)-1H-pyrazol-1-yl]pyridine-3-carboxamide], the “Sel cat. B” value at cathepsin B was “+ (+ means 10≦Ki(cathepsin B)/Ki(calpain)<30)”. In addition, the “Sel cat. K” value at cathepsin K is reported as “+ (+ means 10≦Ki(cathepsin K)/Ki(calpain)<30)”. Moreover, the “Sel cat. L” value at cathepsin L is “++ (++ means a Ki(cathepsin L)/Ki(calpain) ratio of ≧50)”. Moreover, at cathepsin S, the “Sel cat. S” value is reported as “++ (++ means a Ki(cathepsin S)/Ki(calpain) ratio of ≧100)”.

On to `NC(=O)C(=O)C(Cc1ccccc1)NC(=O)c1cccnc1-n1ccc(-c2ccc(F)cc2Cl)n1` (stereo not shown) [Example 71, N-(3-Amino-1-benzyl-2,3-dioxopropyl)-2-[3-(2-chloro-4-fluorophenyl)-1H-pyrazol-1-yl]nicotinamide], for which the “Sel cat. B” value on cathepsin B is “++ (++ means a Ki(cathepsin B)/Ki(calpain) ratio of ≧30)”. In addition, on cathepsin K, the “Sel cat. K” value is listed as “++ (++ means a Ki(cathepsin K)/Ki(calpain) ratio of ≧30)”. At cathepsin L, the “Sel cat. L” value is on record as “++ (++ means a Ki(cathepsin L)/Ki(calpain) ratio of ≧50)”. For the same molecule, on cathepsin S, the “Sel cat. S” value is “++ (++ means a Ki(cathepsin S)/Ki(calpain) ratio of ≧100)”.

With `NC(=O)C(=O)C(Cc1ccccc1)NC(=O)c1cc(Cl)cnc1-n1ccc(-c2ccc(N3CCOCC3)cc2)n1` (stereo not shown) [Example 31, N-(3-Amino-1-benzyl-2,3-dioxopropyl)-5-chloro-2-[3-(4-morpholin-4-ylphenyl)-1H-pyrazol-1-yl]nicotinamide], on cathepsin B, the “Sel cat. B” value is on record as “++ (++ means a Ki(cathepsin B)/Ki(calpain) ratio of ≧30)”. At cathepsin K, the “Sel cat. K” value was “+ (+ means 10≦Ki(cathepsin K)/Ki(calpain)<30)”. For the same molecule, the “Sel cat. L” value on cathepsin L is recorded as “+ (+ means 30≦Ki(cathepsin L)/Ki(calpain)<50)”.

For `COc1ccc(OC)c(-c2ccn(-c3ncccc3C(=O)NC(Cc3ccccc3)C(=O)C(N)=O)n2)c1` (stereo not shown) [Example 151, N-[3-Amino-2,3-dioxo-1-(phenylmethyl)propyl]-2-{3-[2,5-bis(methyloxy)phenyl]-1H-pyrazol-1-yl}pyridine-3-carboxamide], the “Sel cat. B” value on cathepsin B was “++ (++ means a Ki(cathepsin B)/Ki(calpain) ratio of ≧30)”. Also, the “Sel cat. K” value on cathepsin K is listed as “++ (++ means a Ki(cathepsin K)/Ki(calpain) ratio of ≧30)”. Also, the “Sel cat. L” value at cathepsin L is on record as “++ (++ means a Ki(cathepsin L)/Ki(calpain) ratio of ≧50)”.

Source of the values: patent US9139557B2, “Carboxamide compounds and their use as calpain inhibitors” (Abbott GmbH & Co. KG, priority 2006, dated 2015).
